According to EP0264232A1, “2-Azetidinone derivatives” (TAISHO PHARMACEUTICAL CO. LTD, priority 1986, dated 1988):

Test system: ICR strain mice
Details: mouse, in vivo, po, 300 mg/kg
Experimental: Six male ICR strain mice weighing 20 g for each group were administered orally with 300 mg/kg of the test drug (all the test drugs were used in the form of the suspension in 0.5% CMC). Two hours after administration, 5 mm of the tail from the top was cut under pentobarbital anesthesia, and the bleeding was observed by tapping at the cutting site with a filter paper every 15 seconds. The time when the bleeding was observed stopping for one minute is defined as the arrest point of bleeding, and the duration required from the time when the cutting was done to the arrest point of bleeding is defined as the bleeding time. The observation was carried out up to 1200 seconds. Ticlopidine was used as a positive control.

Structure (SMILES)	Bleeding time ± standard error
CC(C=C1C(=O)N(c2ccccc2)C1c1ccccc1)=NOCC(=O)O (centres unmarked) [Compound 1, 3-(2-carboxymethoxyiminopropylidene)-1,4-diphenyl-2-azetidinone]	417.5 ± 171.22 s
Clc1ccccc1CN1CCc2sccc2C1 [ticlopidine]	1127.5 ± 72.50 (note) seconds
